From article PMC5476196, “Uptake, biotransformation and elimination of selected pharmaceuticals in a freshwater invertebrate measured using liquid chromatography tandem mass spectrometry” (Chemosphere, 2017)
Values joined by “and” are separate entries in the source; they are usually repeats but may differ in a detail not shown here. Identical values can stand only once. “Also recorded” adds a separate entry of the source. Counter-ions that a name gives are not always drawn.

Key:
[1] = in vivo; conditions: both, Gammarus pulex, in vivo, G. pulex; for concentration at 6 h: 6h Mean; for concentration at 24 h: 24h Mean
Procedure: (§1) Individual adult organisms (n = 25), both male and female (>5 mg wet weight) were placed in Pyrex glass beakers. G. pulex were carefully transferred to beakers using blunt forceps to avoid any harm to the organisms before exposure. Each beaker contained 25 organisms in 200 mL of exposure media (AFW and test compound). […] All exposure media contained <0.001% of organic solvent (methanol). A total of 300 organisms were used per compound exposure and were sampled for n = 3 per time-point. […] These were subsequently analysed for background contamination. […] Each animal specimen was rinsed with ultra-pure water and then frozen at −20 °C.
(§2) Water samples collected from exposure experiments were filtered using Whatman filters (0.2 μM) and directly injected onto the LC-MS/MS for analysis. For G. pulex, A mass of 50 mg of lyophilised and ground material was extracted by glass bead pulverisation in 5 mL of acetonitrile and diluted with 100 mL of ammonium acetate buffer (10 mM) for loading onto Waters HLB solid phase extraction (SPE) cartridges (6 cc, 200 mg sorbent).
(§3) Briefly, separations were performed on an Agilent HP1100 LC system configured with a Waters SunFire reversed-phase C18 column (150 mm × 2.1 mm, 2.5 μM particle size). […] Detection was performed using a Waters Quattro triple quadrupole mass spectrometer with electrospray ionisation operated in positive and negative polarity switching mode. Quantification of analytes was performed using 3-point internal standard matrix-matched calibration using the peak area ratio of non-labelled analyte (precursor range: 50–300 ng g^−1, biotransformation product range: 50–150 ng g^−1) to the stable isotope labelled internal standard (SIL-IS) (100 ng g^−1).
(§4) Herein, the authors define BCFtotal as the summation of the BCF of both parent/precursor and biotransformation products (i.e. the total body burden). Whereas, BCFparent will be used to describe the BCF determined for the parent compound alone.

[2] = system: Gammarus pulex; assay: in vivo; conditions: for BCFss: steady-state BCF estimation, 48 h
Procedure: as §1, §2, §3, §4

[3] = for stability of aqueous pharmaceutical concentration: across the exposure period; for Concentration, 24 h: exposure media after 24 h of exposure with Day 1 solution; for Concentration, 24 h / Concentration, Day 1 (initial pharmaceutical concentration on day 1): n = 3; for Concentration, 48 h: exposure media after 24 h of exposure with Day 2 solution, n = 3 (propranolol n = 2); for Concentration, Day 2 (initial pharmaceutical concentration on day 2): n = 2; for Concentration, Day 1 (initial pharmaceutical concentration on day 1): nominal 1 μg L^−1 (propranolol 10 μg L^−1)
Procedure: as §1, §2

[4] = system: Pimephales notatus and I. punctatus; design: method as in Garcia et al., 2012; conditions: depending on tissue; ref Garcia et al., 2012; cited from earlier work
[5] = system: Gammarus fossarum; conditions: ref Sordet et al., 2016; cited from earlier work
[6] = system: Mytilus galloprovincialis; conditions: ref Gomez et al., 2012; cited from earlier work
[7] = system: G. pulex; conditions: ref Miller et al., 2016, cited from earlier work; for SeqBCF, Full Design: sequential BCF; for SeqBCF^a, Full Design: sequential estimation using minitab; for SimBCF, Full Design: simultaneous BCF
[8] = system: sturgeons; design: method as in Hou et al., 2003; conditions: ref Hou et al., 2003; cited from earlier work
[9] = system: Gammarus pulex; assay: Biotransformation products in G. pulex after exposure to propranolol, carbamazepine or diazepam (LC-MS/MS); conditions: for k2 of biotransformation product: depuration phase; for detection of biotransformation product in G. pulex at 96 h: after exposure to the precursor compound, end of depuration
Procedure: as §1, §3
A matrix effect and recovery experiment was performed for these additional analytes before exposures were performed (SI Table S5).

[10] = pH 8.19, internal concentration at the end of the uptake phase, 48 h, exposure 1 μg L^−1 (propranolol 10 μg L^−1)
[11] = both, Gammarus pulex, in vivo, pH 8.19
[12] = pH 8.19, Concentration, n=3, exposure 1 μg L^−1 (warfarin, propranolol 10 μg L^−1)
[13] = pH 8.19, Concentration, 48h Mean, n=3, exposure 1 μg L^−1 (warfarin, propranolol 10 μg L^−1)
[14] = k1 re-calculated over time intervals of the uptake phase
[15] = sequential, Levenberg-Marquardt algorithm, exposure 1 μg L^−1 (warfarin, propranolol 10 μg L^−1)
[16] = sequential, linear regression on elimination data, exposure 1 μg L^−1 (warfarin, propranolol 10 μg L^−1)
[17] = simultaneous parametrisation, exposure 1 μg L^−1 (warfarin, propranolol 10 μg L^−1)

## COCCc1ccc(OCC(O)CNC(C)C)cc1 (racemic) [Metoprolol, (±)-metoprolol (+)-tartrate salt]
[1]; [10]
  concentration at 48 h: ≤ 51 ng/g
[2]; [11]
  BCFparent, Sequential a: 39 L/kg
  BCFparent, Sequential b: 37 L/kg
  BCFparent, Simultaneous: 17 L/kg
  k1 (uptake rate constant), Simultaneous: 0.4413
  k1, Sequential a: 0.2788
  k1, Sequential b: 0.2855
  k2 (depuration rate constant), Simultaneous: 0.0259
  k2, Sequential a: 0.0071
  k2, Sequential b: 0.0078
[2]
  BCFss: 9
[3]
  stability of aqueous pharmaceutical concentration: remained stable
  Concentration, 24 h: 0.72 µg/L
  Concentration, 48 h: 0.87 µg/L
[3]; exposure media
  Concentration, Day 2 (initial pharmaceutical concentration on day 2): 0.86 µg/L
  Concentration, Day 1 (initial pharmaceutical concentration on day 1): 0.77 µg/L

## NC(=O)N1c2ccccc2C=Cc2ccccc21 [Carbamazepine, carbamazepine]
[1]; [12]
  concentration at 6 h: 8 ng/g
  concentration at 24 h: 11 ng/g
[1]; [13]
  concentration at 48 h: 14 ng/g
[1]; [10]
  concentration at 48 h: ≤ 51 ng/g
[2]; [11]
  BCFparent from the average of k1 over the 48 h time interval: 26 L/kg
[4]
  BCF in two species of fish (Pimephales notatus and I. punctatus): < 7 L/kg
[3]
  stability of aqueous pharmaceutical concentration: remained stable
  Concentration, 24 h: 1.01 µg/L
  Concentration, 48 h: 1.07 µg/L
[3]; exposure media
  Concentration, Day 2 (initial pharmaceutical concentration on day 2): 1.08 µg/L
  Concentration, Day 1 (initial pharmaceutical concentration on day 1): 1.12 µg/L
[5]
  BCF in Gammarus fossarum: 5 L/kg

## CN1C(=O)CN=C(c2ccccc2)c2cc(Cl)ccc21 [Diazepam, diazepam]
[1]; [12]
  concentration at 6 h: 31 ng/g
  concentration at 24 h: 37 ng/g
[2]; [14]
  BCFparent from the average of k1 over the 48 h time interval: 48 L/kg
[2]; [15]
  BCFparent, Sequential a: 58 L/kg
  k1, Sequential a: 2.6469
  k2, Sequential a: 0.046
[2]; [16]
  BCFparent, Sequential b: 53 L/kg
  k1, Sequential b: 3.0917
  k2, Sequential b: 0.0582
[2]; [17]
  BCFparent, Simultaneous: 41 L/kg
  k2 (depuration rate constant), Simultaneous: 0.2349
[2]
  BCFss: 45
[3]
  Concentration, 24 h: 0.86 µg/L
  Concentration, 48 h: 0.89 µg/L
[3]; exposure media
  Concentration, Day 2 (initial pharmaceutical concentration on day 2): 1.04 µg/L
  Concentration, Day 1 (initial pharmaceutical concentration on day 1): 1.02 µg/L
[6]
  BCF in marine mussel Mytilus galloprovincialis: 51 L/kg

## O=C(O)Cc1ccccc1Nc1c(Cl)cccc1Cl [Diclofenac]
[7]
  SeqBCF, Full Design: 21
  SeqBCF^a, Full Design: 27
  SimBCF, Full Design: 14

## COc1ccc(CC(C)NCC(O)c2ccc(O)c(NC=O)c2)cc1 (stereo not drawn) [Formoterol]
[7]
  SeqBCF, Full Design: 33
  SeqBCF^a, Full Design: 18
  SimBCF, Full Design: 14

## CN(C)CCCN1c2ccccc2CCc2ccccc21 [Imipramine]
[7]
  SeqBCF, Full Design: 4533
  SeqBCF^a, Full Design: 3811
  SimBCF, Full Design: 212

## CC(C)NCC(O)COc1cccc2ccccc12 (stereo not drawn) [Propranolol, Propranolol hydrochloride]
[3]
  Concentration, 24 h: 8.92 µg/L
  Concentration, 48 h: 6.41 μg L^−1 and 6.41 ^a μg L^−1
[3]; exposure media, after the first 24 h
  decline of aqueous concentration: 29%
[3]; exposure media
  Concentration, Day 2 (initial pharmaceutical concentration on day 2): 8.98 µg/L
  Concentration, Day 1 (initial pharmaceutical concentration on day 1): 9.22 µg/L

## Cc1cc(C)nc(NS(=O)(=O)c2ccc(N)cc2)n1 [Sulfamethazine, sulfamethazine]
[2]; exposure 1 μg L^−1
  detection of parent compound in G. pulex samples: not detected in any sample; also recorded: no peaks were detected
[3]
  stability of aqueous pharmaceutical concentration: remained stable
  Concentration, 24 h: 0.99 µg/L
  Concentration, 48 h: 0.71 µg/L
[3]; exposure media
  Concentration, Day 2 (initial pharmaceutical concentration on day 2): 0.89 µg/L
  Concentration, Day 1 (initial pharmaceutical concentration on day 1): 1.06 µg/L
[8]
  BCF in sturgeons: 1 L/kg

## CN1C(=O)C(O)N=C(c2ccccc2)c2cc(Cl)ccc21 (stereo not drawn) [Temazepam, temazepam]
[1]; [12]
  concentration at 6 h: 20 ng/g
  concentration at 24 h: 32 ng/g
[1]; [13]
  concentration at 48 h: 38 ng/g
[1]; [10]
  concentration at 48 h: ≤ 51 ng/g
[2]; [14]
  BCFparent from the average of k1 over the 48 h time interval: 40 L/kg
[2]; [15]
  BCFparent, Sequential a: 41 L/kg
  k1, Sequential a: 2.8514
  k2, Sequential a: 0.0702
[2]; [16]
  BCFparent, Sequential b: 41 L/kg
  k1, Sequential b: 2.751
  k2, Sequential b: 0.0669
[2]; [17]
  BCFparent, Simultaneous: 37 L/kg
  k1 (uptake rate constant), Simultaneous: 4.3326
  k2 (depuration rate constant), Simultaneous: 0.1186
[2]
  BCFss: 38
[9]; G. pulex, after exposure to the precursor compound (propranolol 10 μg L^−1, diazepam 1 μg L^−1)
  mean concentration of biotransformation product at 48 h (end of the uptake phase): 6 ± 3 ng g^−1 dw
[9]; G. pulex, diazepam exposure
  k2 of biotransformation product: 0.016 day⁻¹
[9]
  detection of biotransformation product in G. pulex at 96 h: not detectable
[3]
  stability of aqueous pharmaceutical concentration: remained stable
  Concentration, 24 h: 0.85 µg/L
  Concentration, 48 h: 1.03 µg/L
[3]; exposure media
  Concentration, Day 2 (initial pharmaceutical concentration on day 2): 1.17 µg/L
  Concentration, Day 1 (initial pharmaceutical concentration on day 1): 0.96 µg/L

## CC(C)(C)NCC(O)c1cc(O)cc(O)c1 (stereo not drawn) [Terbutaline]
[7]
  SeqBCF, Full Design: 19
  SeqBCF^a, Full Design: 22
  SimBCF, Full Design: 12

## COc1cc(Cc2cnc(N)nc2N)cc(OC)c1OC [Trimethoprim]
[3]
  Concentration, 24 h: 1.01 µg/L
  Concentration, 48 h: 0.97 µg/L
[3]; exposure media
  Concentration, Day 2 (initial pharmaceutical concentration on day 2): 0.99 µg/L
  Concentration, Day 1 (initial pharmaceutical concentration on day 1): 1.09 µg/L

## NC(=O)N1c2ccccc2C2OC2c2ccccc21 (stereo not drawn) [carbamazepine-10,11-epoxide]
[9]
  detection of biotransformation product in G. pulex at 96 h: not detected
[9]; carbamazepine exposure, 24 h and 48 h
  detection of biotransformation product in G. pulex: detection
[9]; carbamazepine exposure, signals below signal to noise ratio of 10:1
  quantifiability of biotransformation product in G. pulex: not quantifiable

## O=C1CN=C(c2ccccc2)c2cc(Cl)ccc2N1 [nordiazepam]
[9]; G. pulex, diazepam exposure
  concentration of biotransformation product (higher than the parent compound): 94 ng g^−1 dw
  k2 of biotransformation product: 0.0194 day⁻¹
[9]; G. pulex, diazepam exposure, time not stated
  mean concentration of biotransformation product reached: 64 ± 27 ng g^−1 dw

## O=C1Nc2ccc(Cl)cc2C(c2ccccc2)=NC1O (stereo not drawn) [oxazepam]
[9]; G. pulex, diazepam exposure
  reduction of mean internal concentration over the 48 h depuration period: 21 ng g^−1 dw
  k2 of biotransformation product: 0.009 day⁻¹
[5]
  BCF in Gammarus fossarum: 22 L/kg
